Measurements published in patent US7528106B2, “Compositions and methods for treatment of neovascular diseases” (The Scripps Research Institute, priority 2004, dated 2009).

System: deep retinal vascular network formation in neonatal Balb/C mice
Test: Neonatal mouse retinal angiogenesis model
Type: in vivo
Description: Description of the Model. Immediately after birth (postnatal day zero; “P0”), retinal vasculature is virtually absent in the mouse. By four weeks after birth (P28) the retina has attained an adult pattern of retinal vessels coincident with the onset of vision. Physiological neovascularization of the retina occurs during this period via a stereotypical, biphasic developmental pattern of angiogenesis. During the primary phase of retinal vascular development, spoke-like peripapillary vessels grow radially from the central retinal artery and vein, becoming progressively interconnected by a capillary plexus that forms between them. This “inner retinal plexus” grows in area, volume and complexity, centrifugally, as a monolayer within the nerve fiber layer during the first seven to ten days following birth.
The second phase of retinal vessel formation begins between postnatal days 7 (P7) and 10 (P10) when collateral branches sprout from capillaries of the superficial plexus and penetrate into the retina where their tips branch and anastamose laterally to form a planar “deep vascular plexus”. While the deep vascular plexus is in place by P14, it undergoes extensive remodeling from P14 to P21. It is of interest to note that the formation of these vascular networks in the neonatal mouse are strikingly similar to the events occurring in the third trimester human fetus.
Advantages and Quantification of the Model. The reproducibility of the murine retinal development process and its easy accessibility in neonatal animals provide an opportunity to assess the efficacy of antiangiogenic compounds in a physiologically relevant model of angiogenesis. Additional advantages of the neonatal mouse model are the ability to qualitatively and quantitatively evaluate the angiostatic effect of putative antagonists of angiogenesis. Angiostatic activity was evaluated based upon the degree of angiogenesis in the deep, outer retinal vascular layer (secondary layer) that develops between P8 and P12. The appearance of the inner blood vessel network (primary layer) was evaluated for normal development and signs of toxicity.
Preparation of Compositions. Peptidomimetic integrin signaling inhibitor Compound (1) is solubilized in PBS at a concentration of about 20 mg/ml in PBS (1× concentration). T2-TrpRS is solubilized in PBS at a concentration of about 0.5 mg/ml (1× concentration). VEGF aptamer (pegaptanib sodium; Compound (2)) is solubilized in PBS at a concentration of about 2 mg/ml (1× concentration) to achieve an injection of approximately 1 μg/eye at 1× concentration. For all combination assays the compounds were prepared at 2 or 3 times the 1× concentration of each material and then combined to produce a final solution containing each individual compound at the same concentration as was used alone (e.g., 1×, 0.5×, 0.25× or 0.1×, as the case may be). For all assays, a single injection of 0.5 μl of PBS solutions of the drugs was administered intravitreally regardless of the number of compounds being injected. As used herein, the term “0.1×” refers to one tenth of the 1× concentration of a given material, “0.25×” refers to one quarter of the 1× concentration of a given material, “0.5×” refers to one half of the 1× concentration of a given material, and so forth for similar designations.
An in vivo angiogenesis assay in the neonatal mouse (Balb/C, The Jackson Laboratory, Bar Harbor, Me.) was used to evaluate the angiostatic activity of integrin signaling inhibitor Compound (1), T2-TrpRS, and VEGF aptamer Compound (2). Intravitreous injection and retina isolation was performed with a dissecting microscope (SMZ 645, Nikon, Japan). […] The samples (0.5 μl) were injected with a Hamilton syringe fitted with a 32-gauge needle (Hamilton Company, Reno, Nev.). The injection was made between the equator and the corneal limbus. During injection, the location of the needle tip was monitored by direct visualization to determine that it was in the vitreal cavity. […]

[1] = Ex 1, 0.5× (1×=2 mg/ml), intravitreal P8, read P12
[2] = Ex 2, 0.1× of each (1×: T2-TrpRS 0.5, Comp. (2) 2 mg/ml), intravitreal P4, read P12
[3] = Ex 3, 1× of each (T2-TrpRS 0.5, Comp. (2) 2 mg/ml), intravitreal P4, read P12
[4] = Ex 4, 0.5× (1×=2 mg/ml), intravitreal P4, read P12
[5] = Ex 6, 1× of each (T2-TrpRS 0.5, Comp. (2) 2 mg/ml), intravitreal P4, read P12
[6] = Ex 7, 1× (T2-TrpRS 0.5, Comp. (2) 2 mg/ml), intravitreal P4, read P12
[7] = Ex 8, 0.25× (1×=2 mg/ml), intravitreal P4, read P12
[8] = Ex 9, 1× of each (Comp. (1) 20, Comp. (2) 2, T2-TrpRS 0.5 mg/ml), intravitreal P4, read P12
[9] = Table 12, composite data from the Examples, 1× (Compound (2) 0.5× to 1×)
[10] = Table 13A, 1-2 μg per eye, intravitreal P7, read P12
[11] = Table 13C low dosing, 0.1x (integrin ant. 1.0 μg, VEGF apt. 0.20 μg, T2-TrpRS 0.025 μg)

pegaptanib sodium [Compound (2)]
inhibition of neovascularization (0.1× concentrations (1 μg/eye integrin antagonist, 0.2 μg/eye VEGF aptamer, 0.025 μg/eye T2-TrpRS)): negligible
% of eyes with 0-10% inhibition of deep vascular layer [1]: 20%
% of eyes with 10-25% inhibition of deep vascular layer [1]: 20%
% of eyes with 25-50% inhibition of deep vascular layer [1]: 20%
% of eyes with 50-75% inhibition of deep vascular layer [1]: 20%
% of eyes with 75-100% inhibition of deep vascular layer [1]: 40%
% of eyes with 0-10% inhibition of deep vascular layer [2]: 87.5%
% of eyes with 10-25% inhibition of deep vascular layer [2]: 12.5%
% of eyes with 25-50% inhibition of deep vascular layer [2]: 0%
% of eyes with 50-75% inhibition of deep vascular layer [2]: 0%
% of eyes with 75-100% inhibition of deep vascular layer [2]: 0%
% of eyes with 100% inhibition of deep vascular layer [2]: 0%
% of eyes with >95% inhibition of deep vascular layer [2]: 0%
% of eyes with 0-10% inhibition of deep vascular layer [3]: 37.5%
% of eyes with 10-25% inhibition of deep vascular layer [3]: 12.5%
% of eyes with 25-50% inhibition of deep vascular layer [3]: 12.5%
% of eyes with 50-75% inhibition of deep vascular layer [3]: 12.5%
% of eyes with 75-100% inhibition of deep vascular layer [3]: 25%
% of eyes with 100% inhibition of deep vascular layer [3]: 0%
% of eyes with >95% inhibition of deep vascular layer [3]: 0%
% of eyes with 0-10% inhibition of deep vascular layer [4]: 60%
% of eyes with 10-25% inhibition of deep vascular layer [4]: 30%
% of eyes with 25-50% inhibition of deep vascular layer [4]: 0%
% of eyes with 50-75% inhibition of deep vascular layer [4]: 0%
% of eyes with 75-100% inhibition of deep vascular layer [4]: 10%
% of eyes with 100% inhibition of deep vascular layer [4]: 0%
% of eyes with >95% inhibition of deep vascular layer [4]: 0%
% of eyes with 0-10% inhibition of deep vascular layer [5]: 37.5%
% of eyes with 10-25% inhibition of deep vascular layer [5]: 25%
% of eyes with 25-50% inhibition of deep vascular layer [5]: 12.5%
% of eyes with 50-75% inhibition of deep vascular layer [5]: 25%
% of eyes with 75-100% inhibition of deep vascular layer [5]: 0%
% of eyes with 100% inhibition of deep vascular layer [5]: 0%
% of eyes with >95% inhibition of deep vascular layer [5]: 0%
% of eyes with 0-10% inhibition of deep vascular layer [6]: 25%
% of eyes with 10-25% inhibition of deep vascular layer [6]: 25%
% of eyes with 25-50% inhibition of deep vascular layer [6]: 0%
% of eyes with 50-75% inhibition of deep vascular layer [6]: 12.5%
% of eyes with 75-100% inhibition of deep vascular layer [6]: 37.5%
% of eyes with 100% inhibition of deep vascular layer [6]: 0%
% of eyes with >95% inhibition of deep vascular layer [6]: 0%
% of eyes with 0-10% inhibition of deep vascular layer [7]: 54.5%
% of eyes with 10-25% inhibition of deep vascular layer [7]: 36.4%
% of eyes with 25-50% inhibition of deep vascular layer [7]: 0%
% of eyes with 50-75% inhibition of deep vascular layer [7]: 0%
% of eyes with 75-100% inhibition of deep vascular layer [7]: 9.1%
% of eyes with 100% inhibition of deep vascular layer [7]: 0%
% of eyes with >95% inhibition of deep vascular layer [7]: 0%
% of eyes with 0-10% inhibition of deep vascular layer [8]: 25%
% of eyes with 10-25% inhibition of deep vascular layer [8]: 0%
% of eyes with 25-50% inhibition of deep vascular layer [8]: 12.5%
% of eyes with 50-75% inhibition of deep vascular layer [8]: 12.5%
% of eyes with 75-100% inhibition of deep vascular layer [8]: 50%
% of eyes with 100% inhibition of deep vascular layer [8]: 12.5%
% of eyes with >95% inhibition of deep vascular layer [8]: 25%
% of mice with 0-10% inhibition of deep vascular layer [9]: 39.1%
% of mice with 10-25% inhibition of deep vascular layer [9]: 20%
% of mice with 25-50% inhibition of deep vascular layer [9]: 7.6%
% of mice with 50-75% inhibition of deep vascular layer [9]: 11.9%
% of mice with 75-100% inhibition of deep vascular layer [9]: 21.4%
% of mice with 100% inhibition of deep vascular layer [9]: 2.4%
% of mice with >95% inhibition of deep vascular layer [9]: 4.7%
Percentage of retinas with 0-10% neovascular inhibition [10]: 39.1%
Percentage of retinas with 10-25% neovascular inhibition [10]: 20.0%
Percentage of retinas with 25-50% neovascular inhibition [10]: 7.6%
Percentage of retinas with 50-75% neovascular inhibition [10]: 11.9%
Percentage of retinas with 100% neovascular inhibition [10]: 2.4%
Percentage of retinas with >75% neovascular inhibition [10]: 21.4%
Percentage of retinas with >90% neovascular inhibition [10]: 4.7%
Percentage of retinas with 0-10% neovascular inhibition [11]: 75%
Percentage of retinas with 10-25% neovascular inhibition [11]: 25%
Percentage of retinas with 25-50% neovascular inhibition [11]: 0%
Percentage of retinas with 50-75% neovascular inhibition [11]: 0%
Percentage of retinas with 100% neovascular inhibition [11]: 0%
Percentage of retinas with >75% neovascular inhibition [11]: 0%
Percentage of retinas with >90% neovascular inhibition [11]: 0%
retinas that exhibited over 75% inhibition (monotherapy at optimal dose): 21%
retinas unaffected by injection (monotherapy at the maximum individual dose): around 35%
